Assay results as given in patent US11242406B2, “Methods for the treatment of a cancer or fibrotic disorder associated with MENA or MENA(INV) by administering a map kinase inhibitor” (METASTAT, INC., priority 2016, dated 2022).

Tests used:
[1] = tested on: MDA-MB-231-MENA^INV cells; test: Wound healing cell migration assay; format: cell-based, human; details: 18 hours, fully supplemented medium, without drug 50%
Method: MENA kinase inhibitors block MENA-dependent cell migration in a wound-healing assay. The ability of the various MENA kinase inhibitors described above to block MENA-dependent cell migration of MDA-MB-231-MENA^INV cells was assayed using the CySelect™ wound healing assay kit (Cell Biolabs, Inc., San Diego, Calif.). Following the manufacturer's protocol, cells were cultured in fibronectin coated wells until a monolayer formed around the wound insert. The insert was then removed and cells were cultured in the presence of inhibitor at the indicated concentrations in FIG. 9 in fully supplemented medium. After 18 hours the cells were fixed, stained, and evaluated for their capacity to close the wound generated by the insert by fluorescence microscopy.

[2] = tested on: MDA-MB-231-MENA^INV cells; test: Matrigel invasion chamber assay (cell invasion and chemotaxis towards EGF); format: cell-based, human; details: 18 hours
Method: Addition of MENA kinase inhibitors to cells grown in fully supplemented medium reduce the capability of the breast cancer cell line to migrate in the wound healing assay (panels (c)-(h)). Panel (a) represents the wound size at the start of treatment. Cells that were cultured overnight in fully supplemented medium without drug (panel (b)) were able to close 50% of the wound. […] The ability of the various MENA kinase inhibitors described above to inhibit […] tumor cell invasion was tested using the BioCoatTM Matrigel® invasion chamber assay (Corning, Tewksbury, Mass.). […] Inserts were transferred to wells containing basal media (negative control) and the chemoattractant EGF with or without each of the MENA kinase inhibitors. After 18 hours cells that invaded the lower cell surface of the membrane were fixed, stained and evaluated by quantitative immunostaining using imageJ software.

[3] = tested on: MDA-MB-231-MENA^INV cells; test: Boyden Chamber cell migration and chemotaxis assay; format: cell-based, human; details: 18 hours
Method: MENA kinase inhibitors reverse MENA-dependent cell migration and chemotaxis in the Boyden Chamber Assay. […] The fibronectin coated upper chamber were then transferred to wells containing basal media (negative controls) and wells containing basal media, EGF, and MENA kinase inhibitors at the concentrations indicated in FIG. 11. All treatment conditions except the basal negative control used EGF as the chemoattractant. After 18 hours, cells that migrated through the pores toward the chemotattractant were evaluated by quantitative immunostaining using imageJ software as described above. Data were analyzed using anova (n=2) and reported relative to the EGF stimulated cells absent any inhibitor positive control (0) as mean with error of the mean in FIG. 11.

[4] = tested on: MVD7-MENA^INV cells; test: Fibronectin fibrillogenesis assay; format: cell-based, mouse; details: for MENA-dependent fibronectin fibrillogenesis phenotype compared to the MENA-null control: FIG. 8
Method: MENA kinase inhibitors reversed MENA-dependent fibrillogenesis. The ability of the various MENA kinase inhibitors described above to reverse MENA-dependent fibrillogenesis was evaluated in fibronectin fibrillogenesis assays using the […] cell line. Cells were pretreated with MENA kinase inhibitor for 1 hour at the concentrations indicated in FIG. 8 and cultured in medium containing fibronectin-depleted serum supplemented with labeled fibronectin. After 4 hours, fibronectin fibril formation was evaluated by quantitative immunostaining using imageJ software to measure abundance and distribution of fibrillar fibronectin (anova, n=3). The results are plotted relative to control MVD7-GFP cells in FIG. 8.

[5] = tested on: MENA kinase-dependent phosphorylation of MENA^INV at Ser144; test: Quantitative immunoblot of pSer125/pSer144 MENA/MENA^INV in TNF-alpha stimulated MVD7-MENA^INV cells; format: cell-based, mouse; details: FIG. 2
Method: Anti-phospho-MENA antibodies specific for the Ser125/Ser144 phosphorylation site in MENA/MENA^INV were produced in animals injected with peptide containing mouse MENA residues 117-133 phosphorylated at Ser125 and conjugated to KLH (Covance Research Products, Denver, Pa.). Purification of pSer125MENA antibody was performed according to the protocol of Archuleta, et al. (Archuleta, Stutzke, Nixon, & Browning, Optimized protocol to make phospho-specific antibodies that work. Methods Mol. Biol. 717:69-88, 2011). Peptides used for purification (phosphorylated peptide: Ac-CKKGPTLPRQN(pS)QLPAQVQN (SEQ ID NO: 32) and dephosphorylated: […] (SEQ ID NO:32)) were prepared by Covance Research Products (BioLegend, San Diego, Calif.) and ThermoScientific, Grand Island, N.Y., respectively. Peptides were coupled to SulfoLink Coupling Resin Column (ThermoScientific) according to manufacturer's instructions. Sera were sequentially passed over column containing dephosphorylated peptide, and then over the column containing phosphorylated peptide. Antibodies bound to second column were eluted using IgG Elution buffer (ThermoScientific).
Phosphorylation of MENA and or MENA isoforms is inhibited by MENA kinase inhibitors from the Ras-Raf-MEK-MAPK/ERK and PI3K-AKT/mTOR pathways. […] Phosphorylation was measured by quantitative immunoblot assays using MENA antibodies specific for the phosphorylation of MENA/MENA^INV at Ser125/Ser144 Cells were stimulated and the MENA kinase was activated through treatment with 10 ng/ml TNF-alpha. […]

[6] = tested on: HSP27 Ser82 phosphorylation site; test: Mass spec phosphoproteomic analysis of MAPKAPK2/MK2-dependent phosphorylation; format: cell-based; details: doxorubicin treated cells
Source text: (§1) The present invention is also based in part on the discovery that the peptide sequence proximal to the serine 125 (Ser125) phosphorylation site of MENA and the equivalent serine 144 (Ser144) phosphorylation site of MENA^INV are potent substrates of the MAPKAPK2/MK2 kinase. Replacement of Ser125 in MENA and or Ser144 in MENA^INV with a non-phosphorylable amino acid changes the peptide substrates to effective peptide inhibitors of the MAPKAPK2/MK2 kinase. […] In doxorubicin treated cells the MENA Ser125 phosphorylation site becomes more heavily phosphorylated (˜8× increase) than the HSP27 Ser82 phosphorylation site (˜2.5× increase). The Ser125/Ser144 serine residue was replaced with a non-phosphorylatable glycine residue to convert the MENA/MENA^INV substrate peptides into effective MENA kinase inhibitors.

[7] = tested on: MENA Ser125 phosphorylation site; test: as above; format: cell-based; details: doxorubicin treated cells
Source text: as §1

[8] = target: MAPKAPK2/MK2 (Homo sapiens, UniProt P49137); details: cited from earlier work
Chain of MAPKAPK2/MK2 (P49137 whole entry): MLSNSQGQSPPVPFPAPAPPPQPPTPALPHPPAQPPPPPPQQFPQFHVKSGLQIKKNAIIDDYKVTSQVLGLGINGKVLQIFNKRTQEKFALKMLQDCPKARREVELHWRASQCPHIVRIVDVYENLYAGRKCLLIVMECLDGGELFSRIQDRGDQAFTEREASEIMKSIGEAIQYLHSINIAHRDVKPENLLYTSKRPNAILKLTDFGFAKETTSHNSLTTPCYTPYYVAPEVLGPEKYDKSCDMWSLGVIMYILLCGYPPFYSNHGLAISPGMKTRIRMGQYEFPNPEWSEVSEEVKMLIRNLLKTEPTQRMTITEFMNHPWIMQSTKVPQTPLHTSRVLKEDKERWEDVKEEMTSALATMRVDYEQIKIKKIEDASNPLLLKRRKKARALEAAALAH

Molecule	wound closure ([1]; 10 uM)	relative number of cells that invade through Matrigel insert membranes towards EGF ([2]; 10 uM)	MENA-dependent migration/chemotaxis phenotype (cells migrated through fibronectin coated membrane towards EGF) ([3]; 10 uM)	MENA-dependent fibronectin fibrillogenesis phenotype compared to the MENA-null control [4]	level of phosphorylated MENA^INV ([5]; inhibitor at 1 uM)	other results
O=c1cc(N2CCOCC2)oc2c(-c3ccccc3)cccc12 [LY294002, 2-morpholin-4-yl-8-phenylchromen-4-one]	15%	significantly reduce	significantly reverse	significantly reduced		
CC(C)(C)Cn1c(N)nc2ccc(-c3[nH]c(C(C)(C)C)nc3-c3ccc(F)cc3)nc21.CS(=O)(=O)O [LY2228820, 5-[2-tert-butyl-4-(4-fluorophenyl)-1H-imidazol-5-yl]-3-(2,2-dimethylpropyl)imidazo[4,5-b]pyridin-2-amine; methanesulfonic acid]	20%	significantly reduce	significantly reverse		significantly reduce	
O=C(NOC[C@H](O)CO)c1ccc(F)c(F)c1Nc1ccc(I)cc1F [PD0325901, N-[(2R)-2,3-dihydroxypropoxy]-3,4-difluoro-2-[(2-fluoro-4-iodophenyl)amino]-benzamide]				significantly reduced	significantly reduce	wound closure ([1]; 1 uM): 15%; relative number of cells that invade through Matrigel insert membranes towards EGF ([2]; 1 uM): significantly reduce; MENA-dependent migration/chemotaxis phenotype (cells migrated through fibronectin coated membrane towards EGF) ([3]; 1 uM): significantly reverse
Cc1ccc(-c2ccc3c(ccc4sc5c(c43)NC[C@@H](C)NC5=O)n2)cn1.O [PF-3644022, (10R)-9,10,11,12-tetrahydro-10-methyl-3-(6-methyl-3-pyridinyl)-8H-[1,4]diazepino[5′,6′:4,5]thieno[3,2-f]quinolin-8-one hydrate]	10%	significantly reduce	significantly reverse			level of phosphorylated MENA^INV ([5]; inhibitor at 10 uM): significantly reduce
COc1cccc2c1C(=O)c1c(O)c3c(c(O)c1C2=O)C[C@@](O)(C(=O)CO)C[C@@H]3O[C@H]1C[C@H](N)[C@H](O)[C@H](C)O1 [doxorubicin]						increase in phosphorylation of HSP27 Ser82 site [6]: ~2.5 ×; increase in phosphorylation of MENA Ser125 site [7]: ~8 ×
KKKALHRQLGVAA (MAPKAPK2/MK2 inhibitor derived from HSP25)				significantly reduced		wound closure ([1]; 300 uM): 15%; relative number of cells that invade through Matrigel insert membranes towards EGF ([2]; 100 uM): significantly reduce; relative number of cells that invade through Matrigel insert membranes towards EGF ([2]; 300 uM): significantly reduce; MENA-dependent migration/chemotaxis phenotype (cells migrated through fibronectin coated membrane towards EGF) ([3]; 100 uM): significantly reverse; MENA-dependent migration/chemotaxis phenotype (cells migrated through fibronectin coated membrane towards EGF) ([3]; 300 uM): significantly reverse; MENA-dependent fibronectin fibrillogenesis phenotype ([4]; increasing concentrations, 100 and 300 uM, 4 hours): Dose-dependent reductions; inhibition of MAPKAPK2/MK2 [8]: potent inhibitor
